Measured values from patent US11136315B2, “CXCR2 antagonist” (MEDSHINE DISCOVERY INC., priority 2018, dated 2021).

Legend:
[1] = biological target: CXCR2 (Homo sapiens (Human), UniProt P25025); assay: PathHunter CXCR2 β-arrestin cell assay, antagonism of CXCL8 (EC80); assay type: cell-based; conditions: PathHunter CXCR2 β-arrestin cells, CXCL8 agonist at EC80
Protocol: The IC50 values were determined to evaluate the antagonistic activity of the test compounds against CXCR2.
PathHunter® CXCR2 β-arrestin cells (DiscoverX) were grown under normal conditions and seeded on a white-walled 384-microwell plate at 20 μL/well. Before testing, the cells were incubated at 37° C. for an appropriate time. The test compounds were serially diluted in DMSO at a three-fold dilution factor to obtain 8 serially diluted test compounds. Shortly before the test, the above serially diluted test compounds were further diluted with test buffer to 5 times the test concentration. 5 μL of the further diluted test compounds was added to the cells and then the cells were incubated at 37° C. for 30 minutes. The vehicle concentration was 1%. 5 μL of 6×EC80 agonist (CXCL8) buffer was added to the cells and then the cells were incubated at 37° C. for 90 minutes. 15 μL (50% v/v) of PathHunter detection reagent mixture was added in one portion, followed by one-hour incubation to generate the test signal. The microplates were read on a PerkinElmer Envision™ instrument for chemiluminescence signal. The biological activity of the test compounds was analyzed by CBIS data analysis suite (ChemInnovation, CA) and shown as IC50 values.

[2] = Pharmacokinetic evaluation in C57BL/6 mice; assay type: in vivo; conditions: male, mouse, plasma; for clearance / half-life / AUC: intravenous 1 mpk / gavage 5 mpk study; for half-life: read-out: Half-life T1/2 (converted); for AUC: route not stated, unit printed shifted under first column, read-out: Area under the drug concentration time curve (AUC); for bioavailability: po, 5 mg/kg, gavage 5 mpk vs intravenous 1 mpk, read-out: Bioavailability (F)
Protocol: The pharmacokinetic parameters of the compounds in C57BL/6 mice were investigated.
C57BL/6 mice (male, 18-30 g, 7-9 weeks old, Shanghai Lingchang Biotechnology Co., Ltd.)
Formulations containing an aqueous solution of 1% DMSO/10% hydroxypropyl-β-cyclodextrin as the vehicle were administered by intravenous injection (1 mpk), formulations containing an aqueous solution of 1% DMSO/1% hydroxypropyl methylcellulose/0.2% Tween 80 as the vehicle were administered by gavage (5 mpk). Before the animal experiment, all animals were fasted, and fed 4 hours after administration; all animals were free to drink water. The time points of blood collection: intravenous injection administration group: 0.083, 0.25, 0.5, 1, 2, 4, 6, 8 and 24 hours; gavage administration group: 0.25, 0.5, 1, 2, 4, 6, 8 and 24 hours.
(§1) Whole blood samples (0.03 mL) were collected through the saphenous vein (or other suitable blood collection sites) at the prescribed time points, and all blood samples were added to labeled plastic centrifuge tubes containing K2-EDTA anticoagulant. After the blood samples were collected, the plasma was isolated by centrifugation, immediately placed in dry ice and stored at low temperature. All samples were analyzed by LC-MS/MS with a minimum detection limit of 2 nM. The non-compartmental model of WinNonlin™ Version 6.3 (Pharsight, Mountain View, Calif.) pharmacokinetic software was used to process the mean plasma concentration, and the linear-log trapezoid method was used to calculate the pharmacokinetic parameters.

[3] = Pharmacokinetic and tissue distribution in Lewis rats; assay type: in vivo; conditions: male, rat, lung / plasma, oral, 5 mg/kg, gavage 5 mpk, read-out: Ratio in lung blood
Protocol: The pharmacokinetic and tissue distribution of the compounds in Lewis rats was tested.
Lewis rats (male, 202-239 g, 7-9 weeks old, Beijing Viton Lihua)
Formulations containing an aqueous solution of 1% hydroxypropyl methylcellulose/0.2% Tween 80 as the vehicle were administered by gavage (5 mpk). Before the animal experiment, all animals were fasted overnight, and fed 4 hours after administration; all animals were free to drink water. The time points of blood collection: danirixin administration group: 0.25, 1, 8 hours; gavage administration group: 0.5, 1, 4 hours.
as §1, with “(0.2” for “(0.03”, “separated” for “isolated”, “log-linear” for “linear-log”

CXCR2, sequence (P25025 whole entry): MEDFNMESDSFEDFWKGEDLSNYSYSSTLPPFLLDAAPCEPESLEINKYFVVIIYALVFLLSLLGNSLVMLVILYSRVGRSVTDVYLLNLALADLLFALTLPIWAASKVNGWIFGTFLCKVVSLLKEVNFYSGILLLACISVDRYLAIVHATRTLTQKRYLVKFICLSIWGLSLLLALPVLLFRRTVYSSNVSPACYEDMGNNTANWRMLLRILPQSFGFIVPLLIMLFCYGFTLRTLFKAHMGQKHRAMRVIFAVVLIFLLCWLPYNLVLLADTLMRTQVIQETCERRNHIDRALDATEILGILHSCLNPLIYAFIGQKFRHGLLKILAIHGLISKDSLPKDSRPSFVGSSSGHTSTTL

| SMILES | IC50 [1] [µM] | other results |
| --- | --- | --- |
| CC(C)(Cc1ccccc1)S(=O)(=O)c1c(Cl)ccc(NC(=O)N[C@H]2CCCc3ccoc32)c1O (single isomer, unassigned) [WX020A] | 0.177 | – |
| O=C(Nc1ccc(Cl)c(S(=O)(=O)C2CCNCC2)c1O)N[C@H]1CCCc2ccoc21 (single isomer, unassigned) [WX023A] | 0.036 | – |
| O=C(Nc1ccc(Cl)c(S(=O)(=O)CCNC(=O)C2CC2)c1O)NC1CCCc2ccoc21 (single isomer, unassigned) [WX016A] | 0.134 | – |
| CC1(C)NCCCC1S(=O)(=O)c1c(Cl)ccc(NC(=O)NC2CCCc3ccoc32)c1O (stereo not shown) [WX036] | 0.023 | – |
| O=C(Nc1ccc(Cl)c(S(=O)(=O)[C@H]2CCCNC2)c1O)NC1CCCc2ccoc21 (single isomer, unassigned) [WX013A] | 0.014 | clearance [2]: 1.85 L/h/kg; half-life [2]: 2.21 h; AUC [2]: 4.44 µM·h; bioavailability [2]: 75.5% |
| O=C(CS(=O)(=O)c1c(Cl)ccc(NC(=O)NC2CCCc3ccoc32)c1O)NCC(F)(F)F (single isomer, unassigned) [WX018A] | 0.133 | – |
| O=C(Nc1ccc(Cl)c(S(=O)(=O)[C@H]2CCCNC2)c1O)NC1CCCc2occc21 (single isomer, unassigned) [WX001A] | 0.152 | – |
| O=C(Nc1ccc(Cl)c(S(=O)(=O)CCN2C(=O)c3ccccc3C2=O)c1O)NC1CCCc2ccoc21 (stereo not shown) [WX014] | 0.232 | – |
| O=C(Nc1ccc(Cl)c(S(=O)(=O)[C@H]2CCCNC2)c1O)NC1CCCc2cc(C(F)(F)F)oc21 (single isomer, unassigned) [WX030B] | 0.022 | Kp [3]: 2.17 |
| CS(=O)(=O)c1c(Cl)ccc(NC(=O)N[C@H]2CCCc3ccoc32)c1O [WX008A] | 0.122 | – |
| O=C(Nc1ccc(Cl)c(S(=O)(=O)C2CCC2)c1O)NC1CCCc2ccoc21 (stereo not shown) [WX009] | 0.177 | – |
| CC(C)S(=O)(=O)c1c(Cl)ccc(NC(=O)NC2CCCc3occc32)c1O (single isomer, unassigned) [WX002A] | 0.045 | – |
| O=C(Nc1ccc(Cl)c(S(=O)(=O)C2CCCCC2)c1O)N[C@H]1CCCc2ccoc21 [WX011A] | 0.07 | – |
| NCCS(=O)(=O)c1c(Cl)ccc(NC(=O)NC2CCCc3ccoc32)c1O (stereo not shown) [WX015] | 0.186 | – |
| CC(C)S(=O)(=O)c1c(Cl)ccc(NC(=O)N[C@H]2CCCc3ccoc32)c1O [WX003A] | 0.017 | clearance [2]: 0.672 L/h/kg; half-life [2]: 2.22 h; AUC [2]: 12.7 µM·h; bioavailability [2]: 70.3% |
| O=C(Nc1ccc(Cl)c(S(=O)(=O)C2CC2)c1O)N[C@@H]1CCCc2sccc21 (single isomer, unassigned) [WX025B] | 0.139 | – |
| COC(=O)NCCS(=O)(=O)c1c(Cl)ccc(NC(=O)NC2CCCc3ccoc32)c1O (single isomer, unassigned) [WX017A] | 0.072 | – |
| Cc1cc2c(o1)C(NC(=O)Nc1ccc(Cl)c(S(=O)(=O)C3CC3)c1O)CCC2 (stereo not shown) [WX033] | 0.006 | – |

| SMILES | IC50 [1] [µM] | other results |
| --- | --- | --- |
| O=C(Nc1ccc(Cl)c(S(=O)(=O)C2CCCC2)c1O)N[C@H]1CCCc2ccoc21 [WX010A] | 0.061 | – |
| O=C(Nc1ccc(Cl)c(S(=O)(=O)C2CC3(CNC3)C2)c1O)NC1CCCc2ccoc21 (single isomer, unassigned) [WX021A] | 0.72 | – |
| O=C(Nc1ccc(Cl)c(S(=O)(=O)C2CC2)c1O)NC1CCCc2cc(C(F)(F)F)oc21 (stereo not shown) [WX032] | 0.144 | – |
| O=C(Nc1ccc(Cl)c(S(=O)(=O)C2CC2)c1O)N[C@H]1CCCc2ccsc21 (single isomer, unassigned) [WX027A] | 0.269 | – |
| CC(C)S(=O)(=O)c1c(Cl)ccc(NC(=O)NC2CCCc3cc(C(F)(F)F)oc32)c1O (stereo not shown) [WX034] | 0.055 | – |
| Cc1cc2c(o1)C(NC(=O)Nc1ccc(Cl)c(S(=O)(=O)[C@H]3CCCNC3)c1O)CCC2 (single isomer, unassigned) [WX029B] | 0.245 | – |
| Cc1cc2c(o1)C(NC(=O)Nc1ccc(Cl)c(S(=O)(=O)[C@H]3CCCNC3)c1O)CCC2 (single isomer, unassigned) [WX029A] | 0.002 | – |
| O=C(Nc1ccc(Cl)c(S(=O)(=O)C2CC2)c1O)NC1CCCc2ccoc21 (single isomer, unassigned) [WX006A] | 0.022 | clearance [2]: 0.498 L/h/kg; half-life [2]: 3.09 h; AUC [2]: 20.1 µM·h; bioavailability [2]: 83.8% |
| O=C(Nc1ccc(Cl)c(S(=O)(=O)C2CC3(CCNCC3)C2)c1O)N[C@H]1CCCc2ccoc21 (single isomer, unassigned) [WX022A] | 0.366 | – |
| O=C(Nc1ccc(Cl)c(S(=O)(=O)C2CC2)c1O)NC1CCCc2ncsc21 (stereo not shown) [WX028] | 0.472 | – |
| Cc1cc2c(o1)C(NC(=O)Nc1ccc(Cl)c(S(=O)(=O)[C@H]3CCCNC3)c1O)CCC2 (stereo partly shown) [WX029] | 0.015 | – |
| O=C(Nc1ccc(Cl)c(S(=O)(=O)C2CCCNC2)c1O)NC1CCCc2sccc21 (single isomer, unassigned) [WX024A] | 0.525 | – |
| O=C(Nc1ccc(Cl)c(S(=O)(=O)C2CCCNC2)c1O)NC1CCCc2sccc21 (single isomer, unassigned) [WX024B] | 0.667 | – |
| CC(C)(C)S(=O)(=O)c1c(Cl)ccc(NC(=O)NC2CCCc3ccoc32)c1O (single isomer, unassigned) [WX005A] | 0.014 | – |
| O=C(Nc1ccc(Cl)c(S(=O)(=O)CC(F)(F)F)c1O)N[C@H]1CCCc2ccoc21 [WX012A] | 0.017 | clearance [2]: 0.948 L/h/kg; half-life [2]: 0.94 h; AUC [2]: 9.39 µM·h; bioavailability [2]: 82.5% |
| CC(C)(C)OC(=O)N1CCC[C@H](S(=O)(=O)c2c(Cl)ccc(NC(=O)NC3CCCc4ccoc43)c2O)C1 (single isomer, unassigned) [WX004A] | 0.043 | – |
| CCS(=O)(=O)c1c(Cl)ccc(NC(=O)NC2CCCc3ccoc32)c1O (single isomer, unassigned) [WX007A] | 0.042 | – |
